Measured values reported in PubChem BioAssay (NCI).
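Values below derive from 48-hour exposures of cells grown in 96-well plates, with endpoints linearly interpolated between the two concentrations bracketing the appropriate inhibition level. Definition used: TGI = concentration required for complete inhibition of growth.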

Columns and labels:
Assay in all cases: NCI tumour cell line growth inhibition, 48 h
786-0 renal = system: 786-0 renal
A498 renal = system: A498 renal
A549 NSCLC = system: A549 NSCLC
ACHN renal = system: ACHN renal
CAKI-1 renal = system: CAKI-1 renal
CCRF-CEM leukemia = system: CCRF-CEM leukemia
COLO 205 colon = system: COLO 205 colon
DLD-1 colon = system: DLD-1 colon
DMS 114 small cell lung = system: DMS 114 small cell lung
DMS 273 small cell lung = system: DMS 273 small cell lung
EKVX NSCLC = system: EKVX NSCLC
HCC-2998 colon = system: HCC-2998 colon
HCT-116 colon = system: HCT-116 colon
HCT-15 colon = system: HCT-15 colon
HL-60(TB) leukemia = system: HL-60(TB) leukemia
HOP-18 NSCLC = system: HOP-18 NSCLC
HOP-62 NSCLC = system: HOP-62 NSCLC
HOP-92 NSCLC = system: HOP-92 NSCLC
HT29 colon = system: HT29 colon
IGROV1 ovarian = system: IGROV1 ovarian
K-562 leukemia = system: K-562 leukemia
KM12 colon = system: KM12 colon
KM20L2 colon = system: KM20L2 colon
LOX IMVI melanoma = system: LOX IMVI melanoma
LXFL 529 NSCLC = system: LXFL 529 NSCLC
M14 melanoma = system: M14 melanoma
M19-MEL melanoma = system: M19-MEL melanoma
MALME-3M melanoma = system: MALME-3M melanoma
MOLT-4 leukemia = system: MOLT-4 leukemia
NCI-H226 lung = system: NCI-H226 lung
NCI-H23 lung = system: NCI-H23 lung
NCI-H460 lung = system: NCI-H460 lung
NCI-H522 lung = system: NCI-H522 lung
OVCAR-3 ovarian = system: OVCAR-3 ovarian
OVCAR-4 ovarian = system: OVCAR-4 ovarian
OVCAR-5 ovarian = system: OVCAR-5 ovarian
OVCAR-8 ovarian = system: OVCAR-8 ovarian
RPMI-8226 leukemia = system: RPMI-8226 leukemia
RXF 393 renal = system: RXF 393 renal
SF-268 CNS = system: SF-268 CNS
SF-295 CNS = system: SF-295 CNS
SF-539 CNS = system: SF-539 CNS
SK-MEL-2 melanoma = system: SK-MEL-2 melanoma
SK-MEL-28 melanoma = system: SK-MEL-28 melanoma
SK-MEL-5 melanoma = system: SK-MEL-5 melanoma
SK-OV-3 ovarian = system: SK-OV-3 ovarian
SN12C renal = system: SN12C renal
SNB-19 CNS = system: SNB-19 CNS
SNB-75 CNS = system: SNB-75 CNS
SR leukemia = system: SR leukemia
SW-620 colon = system: SW-620 colon
TK-10 renal = system: TK-10 renal
U251 CNS = system: U251 CNS
UACC-257 melanoma = system: UACC-257 melanoma
UACC-62 melanoma = system: UACC-62 melanoma
UO-31 renal = system: UO-31 renal
XF 498 CNS = system: XF 498 CNS
SNB-78 CNS = system: SNB-78 CNS
RXF-631 renal = system: RXF-631 renal

Measured: TGI

COC(=O)CCC(=O)N1CC1C (stereo not given)
not listed: SNB-78 CNS | RXF-631 renal
> 100 µM: all other assays above

Cc1cc2c(cc1CO)N1Cc3cc(C)c(CO)cc3N(C2)C1
not listed: A498 renal | ACHN renal | CAKI-1 renal | HCT-15 colon | HOP-92 NSCLC | MALME-3M melanoma | OVCAR-5 ovarian | SK-MEL-2 melanoma | SR leukemia | UACC-257 melanoma | UO-31 renal | RXF-631 renal
> 100 µM: all other assays above

O=C(/C(=N/Nc1ccccc1)c1ccc([N+](=O)[O-])cc1)c1ccc([N+](=O)[O-])cc1
not listed: A498 renal | CCRF-CEM leukemia | HL-60(TB) leukemia | HOP-62 NSCLC | LOX IMVI melanoma | NCI-H226 lung | SF-268 CNS | RXF-631 renal
> 100 µM: all other assays above

CN1CCCN2CCN(C)CCCN(CC1)CC2
not listed: A549 NSCLC | ACHN renal | EKVX NSCLC | HCT-15 colon | HOP-18 NSCLC | HT29 colon | KM12 colon | KM20L2 colon | OVCAR-3 ovarian | OVCAR-5 ovarian | OVCAR-8 ovarian | RXF 393 renal | SF-295 CNS | SK-MEL-5 melanoma | SNB-19 CNS | SW-620 colon | TK-10 renal | U251 CNS | UACC-257 melanoma
> 100 µM: all other assays above
